What was measured:
[1] = Inhibition of recombinant bacterial NDM-1 expressed in Escherichia coli assessed as reduction in breakdown of cephalosporin FC-5 by fluorescence method; parameters: species or system Bacteria
[2] = Inhibition of recombinant bacterial VIM-1 expressed in Escherichia coli assessed as reduction in breakdown of cephalosporin FC-5 by fluorescence method; parameters: species or system Bacteria
[3] = Inhibition of recombinant bacterial KPC-2 expressed in Escherichia coli assessed as reduction in breakdown of cephalosporin FC-5 by fluorescence method; parameters: species or system Bacteria
[4] = Inhibition of recombinant bacterial CphA expressed in Escherichia coli assessed as reduction in hydrolysis of meropenem by UV spectrophotometeric analysis; parameters: species or system Bacteria
[5] = Inhibition of recombinant Escherichia coli OXA-48 assessed as reduction in breakdown of cephalosporin FC-5 in presence of 100 mM NaHCO3 by fluorescence method
[6] = Inhibition of recombinant bacterial IMP-1 expressed in Escherichia coli assessed as reduction in breakdown of cephalosporin FC-5 by fluorescence method; parameters: species or system Bacteria
[7] = Inhibition of recombinant Stenotrophomonas maltophilia K279a L1 expressed in Escherichia coli using FC-5 as substrate by fluorescence method
Escherichia coli [8] = experiment: Inhibition of NDM1 in Escherichia coli 91N clinical isolate assessed as potentiation of meropenem-induced antibacterial activity by measuring meropenem MIC at 8 ug/ml by broth microdilution method (Rvb > 64 ug/ml)
[9] = biological target: Metallo-beta-lactamase type 2 (Klebsiella pneumoniae) (UniProt C7C422); experiment: Inhibition of NDM1 in Klebsiella pneumoniae IR43 clinical isolate assessed as potentiation of meropenem-induced antibacterial activity by measuring meropenem MIC at 8 ug/ml by broth microdilution method (Rvb > 64 ug/ml)
Metallo-beta-lactamase type 2 (Klebsiella pneumoniae), sequence (C7C422 whole entry): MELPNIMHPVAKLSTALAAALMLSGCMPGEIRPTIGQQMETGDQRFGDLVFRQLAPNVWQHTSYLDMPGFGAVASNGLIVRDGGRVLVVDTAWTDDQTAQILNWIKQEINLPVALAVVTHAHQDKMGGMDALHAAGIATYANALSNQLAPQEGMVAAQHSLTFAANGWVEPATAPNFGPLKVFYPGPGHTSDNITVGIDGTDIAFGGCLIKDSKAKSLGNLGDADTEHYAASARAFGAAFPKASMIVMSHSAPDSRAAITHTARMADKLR

[10] = Inhibition of recombinant Escherichia coli OXA-10 assessed as reduction in breakdown of cephalosporin FC-5 in presence of 100 mM NaHCO3 by fluorescence method
[11] = biological target: Metallo-beta-lactamase type 2 (Klebsiella pneumoniae) (UniProt C7C422); experiment: Inhibition of NDM1 in Klebsiella pneumoniae B68-1 clinical isolate assessed as potentiation of meropenem-induced antibacterial activity by measuring meropenem MIC at 8 ug/ml by broth microdilution method (Rvb > 64 ug/ml)
[12] = biological target: Metallo-beta-lactamase type 2 (Klebsiella pneumoniae) (UniProt C7C422); experiment: Inhibition of NDM1 in Klebsiella pneumoniae B64 clinical isolate assessed as potentiation of meropenem-induced antibacterial activity by measuring meropenem MIC at 8 ug/ml by broth microdilution method (Rvb > 64 ug/ml)
Bacteria = experiment: Inhibition of bacterial expressed in Escherichia coli OXA-10 assessed as reduction in breakdown of cephalosporin FC-5 at 400 uM by fluorescence method
Escherichia coli [13] = experiment: Inhibition of NDM1 in Escherichia coli S117 clinical isolate assessed as potentiation of meropenem-induced antibacterial activity by measuring meropenem MIC at 8 ug/ml by broth microdilution method (Rvb > 64 ug/ml)
[14] = Inhibition of recombinant bacterial OXA-10 expressed in Escherichia coli assessed as reduction in breakdown of cephalosporin FC-5 by fluorescence method; parameters: species or system Bacteria
Escherichia coli [15] = experiment: Inhibition of NDM1 in Escherichia coli IR57 clinical isolate assessed as potentiation of meropenem-induced antibacterial activity by measuring meropenem MIC at 8 ug/ml by broth microdilution method (Rvb > 64 ug/ml)

`NCc1ccc(C(=O)N[C@H]2Cc3cccc(C(=O)O)c3OB2O)cc1` gave an IC50 [1] of 29 nM, an IC50 [2] of 85 nM and an IC50 [3] of 30 nM. For the same molecule, the IC50 [4] was greater than 100000 nM, the IC50 [5] was 2600 nM and the IC50 [6] was 1000 nM. For the same molecule, the IC50 [7] was “Not Active”.

In the case of `O=C(O)C[C@@H]1CC[C@H](NC(=O)Cc2cccs2)B(O)O1` [VABORBACTAM], the MIC (Escherichia coli [8]) is reported as greater than 64 µg/mL, the MIC [9] is reported as greater than 64 µg/mL and the IC50 [10] is reported as greater than 400000 nM. The MIC [11] was greater than 64 µg/mL, the MIC [12] was greater than 64 µg/mL and the inhibition (Bacteria) was less than 50%. The MIC (Escherichia coli [13]) was greater than 64 µg/mL, the IC50 [14] was greater than 400000 nM and the MIC (Escherichia coli [15]) was greater than 64 µg/mL.

Source: ChEMBL document CHEMBL4385617 (Bioorg Med Chem Lett, 2019)
